Experiment [1] concerns A-form human PR. The experiment is described as follows: Limited proteolytic digestion of translated PR. It counts as biochemical. Particulars: 100 nM ligand; for protease-resistant PR fragment: chymotrypsin, trypsin or subtilisin digestion; for proteolytic fragment pattern / conformational change of PR: trypsin (Org compounds) or subtilisin (R5020). The protocol: (§1) To 5 μl of hormone-treated (10 minutes at room temperature (PR) or 37° C. (ER)) labeled translation mix, 0.5 μl of protease (diluted in water) was added followed by incubation for 10 minutes. The rate of digestion is dependent on the concentration of enzyme used. ER translation mixes were made 10 mM in MgCl2 before hormone addition. 0.5 μl was removed and mixed with 10 μl of denaturing loading dye, boiled for 5 minutes, and immediately loaded on 1.5 mm thick 0.1% (w/v) sodium dodecyl sulphate-12% (w/v) polyacrylamide gels. Denaturing gel electrophoresis was performed as described in Promega's translation handbook. Following electrophoresis, gels were treated with 30% (v/v) methanol/10% (v/v) acetic acid, then with EN^3 HANCE, and were vacuum dried at 60° C. for 30 minutes, followed by 80° C. for 45 minutes. Autoradiography was performed overnight. Promega's rabbit reticulocyte lysates average a protein concentration of 130 mg/ml; 5 μg of protease per ml of translation mix is therefore roughly equivalent to 60 ng of protease per mg of protein.
Proteolytic analysis is a powerful method for analyzing conformation changes within proteins. [^35 S]methionine-labeled PR was treated with progesterone, Ru38486 or ethanol, then digested for a short period of time with different amounts of various proteases. Digestion products were analyzed by denaturing gel electrophoresis.

Another experiment has as its target T1, hPR (Homo sapiens, UniProt P06401).
T1 sequence (P06401 1-933): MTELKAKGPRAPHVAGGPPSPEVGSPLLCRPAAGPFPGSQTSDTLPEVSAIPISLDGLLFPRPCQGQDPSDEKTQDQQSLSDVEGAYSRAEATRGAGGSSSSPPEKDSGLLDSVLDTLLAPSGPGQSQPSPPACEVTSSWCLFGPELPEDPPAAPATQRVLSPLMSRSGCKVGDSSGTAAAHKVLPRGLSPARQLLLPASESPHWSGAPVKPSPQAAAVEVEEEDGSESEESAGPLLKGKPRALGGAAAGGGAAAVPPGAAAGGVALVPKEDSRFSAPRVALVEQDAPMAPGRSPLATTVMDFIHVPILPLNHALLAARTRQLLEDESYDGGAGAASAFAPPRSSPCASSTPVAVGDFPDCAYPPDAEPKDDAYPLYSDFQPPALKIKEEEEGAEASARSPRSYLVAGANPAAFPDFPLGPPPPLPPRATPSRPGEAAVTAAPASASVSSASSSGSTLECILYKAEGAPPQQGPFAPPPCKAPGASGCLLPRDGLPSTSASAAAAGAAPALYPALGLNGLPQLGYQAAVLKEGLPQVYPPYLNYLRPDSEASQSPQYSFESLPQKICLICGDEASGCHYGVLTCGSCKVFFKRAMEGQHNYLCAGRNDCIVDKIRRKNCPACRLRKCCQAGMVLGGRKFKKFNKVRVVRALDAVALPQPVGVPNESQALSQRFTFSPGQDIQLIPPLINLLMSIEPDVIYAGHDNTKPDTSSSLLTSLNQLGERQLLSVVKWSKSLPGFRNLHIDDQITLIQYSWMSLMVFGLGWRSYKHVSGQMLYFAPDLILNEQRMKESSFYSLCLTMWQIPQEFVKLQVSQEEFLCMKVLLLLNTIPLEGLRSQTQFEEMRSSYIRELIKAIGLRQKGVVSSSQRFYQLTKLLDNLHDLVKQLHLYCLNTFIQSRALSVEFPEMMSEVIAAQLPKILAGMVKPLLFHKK
In words: Bandshift analysis of T47D extract hPR with C-262 antibody supershift. The class given is biochemical. Particulars: T47D extracts; 100 nM ligand. On the procedure:
In panel (A), T47D extracts were treated in vitro with 100 nM progesterone (P, lanes 2, 5, 8, 11 and 13), RU486 (R, lanes 3, 6 and 9) or with an equal amount (0.01% (v/v)) of ethanol carrier (-, lanes 1, 4, 7, 10, 12 and 14), followed by the addition of N-terminal-binding (AB52, lanes 7 to 9 and 14) or C-terminal-binding (C-262, lanes 4 to 13) anti-hPR monoclonal antibodies, or a control anti-cPR antibody (PR22, lanes 1 to 3). […] Binding to a PRE was assessed by bandshift analysis. The positions of specific DNA-protein complexes and of free probe are indicated. (B) The effect of ligands on C-262 supershifting was tested as in (A), except that extracts were treated with 100 nM Org31376 (OI, lanes 3, 7 and 11), Org31806 (OII, lanes 4, 8 and 12) or progesterone (P, lanes 2, 6 and 10).
A monoclonal antibody (C-262), which was raised against the C-terminal 14 amino acids of PR was used to determine if there was a difference in the accessibility of the epitope when the receptor was bound to an agonist or an antagonist.
The epitope recognized by C-262 antibody was the C-terminus of the receptor. A peptide corresponding to the C-terminal 14 amino acid tail was preincubated with the antibody prior to addition to the band-shift reaction.

The subject of experiment [2] is A-form human PR. In words: Electrophoretic mobility shift assay, in vitro translated PR binding to a PRE. The class given is biochemical. Particulars: 100 nM ligand (progesterone also 10 nM). On the procedure:
(§2) EMSAs were carried out as previously described (Bagchi et al., Mol. Cell. Biol., 2:1221, 1988), except that 100 ng (PR) or 1 μg (ER) of Poly(dI-dC)(dI-dC) were used as competitor and 10 mM MgCl2 was used when testing estrogen receptor. 4 μl of unlabeled translation mix were used per 10 μl reaction. Proteins were incubated with ligand at room temperature (PR) or 37° C. (ER) for 10 minutes, followed by the addition of DNA and further incubation for 10 minutes. For the experiment in FIG. 2, all incubations were carried out at 30° C. in the presence of 300 U/ml calf intestinal alkaline phosphatase. All mixing was done by gentle vortexing. DNA-protein complexes were resolved on 4% (w/v) gels.
Hormone-dependent activity of the in vitro synthesized PR was measured, i.e., its ability to bind DNA specifically was examined by electrophoretic mobility shift assay (EMSA) (FIG. 1A). Unlabeled receptors were incubated with a ^32 P-end-labeled oligonucleotide equivalent to a PRE from the tyrosine aminotransferase gene upstream region.

Another experiment deals with progesterone action. Particulars: cited from earlier work.
Another experiment deals with T2, Human ER (Homo sapiens, UniProt P03372).
T2 sequence (P03372 1-595): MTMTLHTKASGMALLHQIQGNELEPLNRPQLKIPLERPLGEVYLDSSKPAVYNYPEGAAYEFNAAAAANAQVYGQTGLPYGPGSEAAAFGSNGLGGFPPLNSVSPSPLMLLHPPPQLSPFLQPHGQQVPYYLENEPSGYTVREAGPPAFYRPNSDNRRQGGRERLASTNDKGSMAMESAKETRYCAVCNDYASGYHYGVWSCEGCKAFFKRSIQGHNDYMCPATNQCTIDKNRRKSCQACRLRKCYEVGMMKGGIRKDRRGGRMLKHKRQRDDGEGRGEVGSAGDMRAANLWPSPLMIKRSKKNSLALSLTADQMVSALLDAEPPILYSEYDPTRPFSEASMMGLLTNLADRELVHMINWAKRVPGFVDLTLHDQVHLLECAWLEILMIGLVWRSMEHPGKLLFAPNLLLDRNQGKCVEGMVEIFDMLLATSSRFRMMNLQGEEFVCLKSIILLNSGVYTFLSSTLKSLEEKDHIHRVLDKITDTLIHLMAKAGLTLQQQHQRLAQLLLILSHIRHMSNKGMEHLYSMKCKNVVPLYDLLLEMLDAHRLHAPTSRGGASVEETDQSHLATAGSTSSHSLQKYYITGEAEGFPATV
The experiment is described as follows: Electrophoretic mobility shift assay, translated ER binding to an ERE. Particulars: 100 nM ligand; 10 mM MgCl2, 37° C. The class given is biochemical. The protocol:
as §2
On the technique in general: In EMSA bound probe runs differently from free probe, usually more slowly.

For a further experiment, the system named is ER. Particulars: cited from earlier work.
Experiment [3] relates to retinoic acid receptor (RAR). In words: Trypsin digestion of translated RAR. It counts as biochemical. Particulars: preincubated with 2 μM retinoic acid. On the procedure: as §1
(§3) The receptors were translated as a polypeptides of predicted molecular weight (FIG. 7A and 7B, lane 1). Trypsin digestion of RAR and TR which had been preincubated with 2 μM retinoic acid and 10^-T MT3 produced a resistant 31 kd fragment, which was not detectable following digestion of carrier-treated receptor (compare lanes 2-6 with lanes 8-12). […]

Another experiment relates to thyroxine receptor (TR). In words: Trypsin digestion of translated TR. It counts as biochemical. Particulars: preincubated with 10^-T MT3. The protocol:
as §1, §3

In the case of `CC(=O)[C@H]1CC[C@H]2[C@@H]3CCC4=CC(=O)CC[C@]4(C)[C@H]3CC[C@]12C` [progesterone], the “protease-resistant PR fragment” value with A-form human PR [1] came out at 30 kd. Besides, the “recognition (supershift) of ligand-bound hPR-DNA complex by C-262 antibody” value on hPR is “almost totally prevented recognition of the receptor by C-262 antibody”. Also, the “binding of translated PR to a PRE (specific DNA-protein complex, EMSA)” value (“binding of translated PR to a PRE” for short) in the experiment on A-form human PR [2] is listed as “Specific DNA-protein complexes were obtained”.
Consider `C[C@H]1CC2=CC(=O)CCC2=C2[C@@H]1[C@@H]1CC[C@@]3(CCCO3)[C@@]1(C)C[C@@H]2c1ccc(N(C)C)cc1` [Org 31806], for which, in the experiment on A-form human PR [1], the “proteolytic fragment pattern / conformational change of PR” value was “indistinguishable from that induced by Ru38486”. Moreover, in the experiment with progesterone action, the “antagonism of progesterone action in vivo” value is on record as “strongly antagonize progesterone action in vivo”. For the same compound, the “recognition (supershift) of ligand-bound hPR-DNA complex by C-262 antibody” value at hPR is recorded as “resulted in supershifting of PR-DNA complexes”. In addition, the “binding of translated PR to a PRE” value in the experiment with A-form human PR [2] was “induce binding of translated PR to a PRE in vitro”.
Take `CCCCN(C)C(=O)CCCCCCCCCC[C@@H]1Cc2cc(O)ccc2[C@H]2CC[C@]3(C)[C@@H](O)CC[C@H]3[C@H]12` [ICI 164,384]: the “binding of translated ER to an ERE (EMSA)” value at Human ER is recorded as “induces high affinity DNA binding”. Further, the agonistic activity result with ER is “no detectable agonistic activity”.
With `CC1=C(/C=C/C(C)=C/C=C/C(C)=C/C(=O)O)C(C)(C)CCC1` [retinoic acid], the “trypsin-resistant RAR fragment” value in experiment [3] was found to be 31 kd.
For `CC#C[C@]1(O)CC[C@H]2[C@@H]3CCC4=CC(=O)CCC4=C3[C@@H](c3ccc(N(C)C)cc3)C[C@@]21C` [Ru38486], the “protease-resistant PR fragment” value in the experiment with A-form human PR [1] came to 27 kd. Moreover, on hPR, the “recognition (supershift) of ligand-bound hPR-DNA complex by C-262 antibody” value was “exposed”. For the same compound, in the experiment on A-form human PR [2], the “binding of translated PR to a PRE” value is given as “promoted binding to the PRE that was at least as strong as that induced by an equal concentration (100 nM) of progesterone”.
Turning to thyroxine [T3], the “trypsin-resistant TR fragment” value in the experiment with thyroxine receptor (TR) came to 31 kd.
Take `C[C@]12CC[C@@H]3c4ccc(O)cc4CC[C@H]3[C@@H]1CC[C@@H]2O` [estradiol, 17β-estradiol]: the “binding of translated PR to a PRE” value with A-form human PR [2] is reported as “failed to induce a specific complex”.
Regarding `CCC(=O)[C@@]1(C)CC[C@H]2[C@@H]3CCC4=CC(=O)CCC4=C3CC[C@@]21C` [R5020], the “proteolytic fragment pattern / conformational change of PR” value in the experiment with A-form human PR [1] was “R5020 and progesterone induced the same conformational changes”.

The values are drawn from patent US5759785A, “Method of identifying hormone antagonists and agonists” (Baylor College of Medicine, priority 1995, dated 1998).
